Results taken from publication PMC4890880 (ACS infectious diseases, 2016).
Where two headings read alike, the source gives them in different places.

What was measured:
[1] = system: Plasmodium cynomolgi exoerythrocytic-stage small (hypnozoites) and large (liver stage schizonts) parasites; test: P. cynomolgi liver assay in primary hepatocytes; conditions: for inhibition at 0.1 µM / inhibition at 1 µM / inhibition at 10 µM: Plasmodium cynomolgi, Hepatocyte
[2] = system: Plasmodium berghei (Pb-Luc) exoerythrocytic-stage parasites; test: microbe, parasite or virus in culture; conditions: for IC50: read-out: PbLuc IC50, dose response, 1/3 dilutions, max conc. 10 or 50 uM, unit inferred
[3] = only compound of the set tested with exposure; cited from earlier work
HepG2-A16-CD81EGFP cells [4] = test: cells; conditions: Homo sapiens; for IC50: HepG2, read-out: Tox IC50
[5] = system: P. falciparum Dd2 erythrocytic stage; test: Dd2 erythrocytic-stage assay (SYBR Green) for DOS compounds
HepG2-A16-CD81EGFP cells [6] = system: HepG2-A16-CD81EGFP cells
[7] = system: Plasmodium berghei (Pb-Luc) exoerythrocytic-stage parasites
Plasmodium DHODH enzyme = target: T1, Plasmodium DHODH enzyme (Plasmodium falciparum, UniProt Q08210); test: DHODH assay; conditions: data not shown
T1 sequence (Q08210 24-569): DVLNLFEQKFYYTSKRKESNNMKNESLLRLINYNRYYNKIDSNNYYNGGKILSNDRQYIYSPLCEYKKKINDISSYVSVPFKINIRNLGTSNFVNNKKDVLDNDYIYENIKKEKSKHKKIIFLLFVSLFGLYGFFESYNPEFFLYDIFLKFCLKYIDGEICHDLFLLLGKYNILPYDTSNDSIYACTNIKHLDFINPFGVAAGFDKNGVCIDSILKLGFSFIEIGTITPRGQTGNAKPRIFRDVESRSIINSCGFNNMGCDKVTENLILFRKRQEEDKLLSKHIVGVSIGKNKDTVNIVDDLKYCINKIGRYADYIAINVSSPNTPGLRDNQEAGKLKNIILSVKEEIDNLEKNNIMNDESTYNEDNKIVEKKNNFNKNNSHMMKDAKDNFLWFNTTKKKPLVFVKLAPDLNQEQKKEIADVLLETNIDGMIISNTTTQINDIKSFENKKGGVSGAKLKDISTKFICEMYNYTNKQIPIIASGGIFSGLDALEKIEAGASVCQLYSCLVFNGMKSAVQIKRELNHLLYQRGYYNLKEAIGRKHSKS

[8] = system: P. berghei expressing GFP (Pb-GFP) in Huh7.5.1 cells; test: Flow cytometry assay of traversal, invasion, EEF frequency and EEF development; assay type: cell-based, Plasmodium berghei; conditions: 2 hours post infection; 1 μM
[9] = target: QuantiLum Recombinant Luciferase (Photinus pyralis, UniProt P08659); test: Bioluminescence quantification of compound luciferase inhibition
Chain of QuantiLum Recombinant Luciferase (P08659 whole entry): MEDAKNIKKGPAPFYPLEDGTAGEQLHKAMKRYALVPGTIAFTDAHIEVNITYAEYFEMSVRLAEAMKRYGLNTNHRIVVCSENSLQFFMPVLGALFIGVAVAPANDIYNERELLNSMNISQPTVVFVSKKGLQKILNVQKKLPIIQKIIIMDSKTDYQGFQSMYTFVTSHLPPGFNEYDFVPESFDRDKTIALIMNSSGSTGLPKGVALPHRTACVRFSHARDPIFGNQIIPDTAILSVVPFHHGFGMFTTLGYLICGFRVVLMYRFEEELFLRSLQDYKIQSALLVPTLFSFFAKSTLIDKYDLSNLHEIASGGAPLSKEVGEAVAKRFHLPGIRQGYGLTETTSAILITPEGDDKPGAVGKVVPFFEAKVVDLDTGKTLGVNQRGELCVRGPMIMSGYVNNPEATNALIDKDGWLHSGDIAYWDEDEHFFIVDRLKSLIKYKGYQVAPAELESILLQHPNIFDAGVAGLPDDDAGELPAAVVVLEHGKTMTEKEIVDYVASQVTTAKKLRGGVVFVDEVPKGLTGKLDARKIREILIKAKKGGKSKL

[10] = system: P. falciparum 3D7 parasites; test: Asexual erythrocytic-stage SYBR Green I proliferation assay, 1536-well; assay type: cell-based, Plasmodium falciparum; conditions: Plasmodium falciparum, 3D7, read-out: erythrocytic-stage P. falciparum IC50, values reported in Table S1, Additional File 1
Huh7.5.1 cells = test: Cytotoxicity in Huh7.5.1 cells (Figure S4); conditions: at 10 μM
[11] = system: Pb-Luc exoerythrocytic-stage parasites in Huh7.5.1 cells; test: Pb-Luc time of action assay (modified 384-well luciferase assay); conditions: Plasmodium berghei
[12] = read-out: % inhibition normalized to untreated control, Large
[13] = read-out: % inhibition normalized to untreated control, Small
[14] = read-out: Inhibition% @ 50 uM rep1
[15] = read-out: Inhibition% @ 50 uM rep2
[16] = HepG2, read-out: HepG2 Tox% @ 50 uM rep1

For Brc1ccc(Nc2nc3ccccc3nc2Nc2ccc(Br)cc2)cc1 [MMV007224], the inhibition at 0.1 µM [1, 12] was 23%, the inhibition at 1 µM [1, 12] was 43% and the inhibition at 10 µM [1, 12] was 96%. The inhibition at 0.1 µM [1, 13] was 30%, the inhibition at 1 µM [1, 13] was 20% and the inhibition at 10 µM [1, 13] was 67%. For the same molecule, the “activity against small or large forms” value ([1]; at 10 μM, in words) was “moderate activity”, the inhibition at 50 µM [2, 14] was 103% and the inhibition at 50 µM [2, 15] was 103%. The IC50 [2] was 170 nM, the inhibition at 50 µM ([2]; read-out: PbLuc max inhibition (%) @ 50 uM) was 101% and the “pharmacokinetic exposure in vivo” value [3] was “any pharmacokinetic exposure in vivo”. The cytotoxicity at 50 µM (HepG2-A16-CD81EGFP cells [4]; [16]) was 100%, the IC50 (HepG2-A16-CD81EGFP cells [4]) was 1940 nM and the inhibition at 50 µM (HepG2-A16-CD81EGFP cells [4]; HepG2, read-out: Tox max inhibition (%) @ 50 uM) was 99%.
For CS(=O)(=O)N1[C@H](C#N)[C@H](c2ccc(C#Cc3cccc(F)c3)cc2)[C@H]1CO [BRD0326], the erythrocytic-stage activity ([5]; in words) was “no erythrocytic-stage activity”, the IC50 ([5]; read-out: Erythrocytic-stage (Pf Dd2) IC50, Figure 4b) was over 10 µM and the CC50 (HepG2-A16-CD81EGFP cells [6]) was over 10 µM. It also gave an IC50 ([7]; read-out: Exoerythrocytic-stage Pb-Luc IC50, Figure 4b, first assay) of 300 nM, an IC50 ([7]; read-out: Exoerythrocytic-stage Pb-Luc IC50, Figure 4b, second assay (value in parentheses)) of 150 nM and an IC50 ([7]; read-out: Pb-Luc IC50, Figure 4a, stereoisomers tested in dose response) of 152 nM. The IC50 ([7]; read-out: Pb-Luc IC50, Figure 4a, stereoisomers tested in dose response, listed as BRD0326 SSS) was under 1000 nM and the “activity in a DHODH assay” value (Plasmodium DHODH enzyme) was “inactive”.
With COc1cccc(C=Cc2nc(=O)c3ccccc3o2)c1OC [MMV666693] the “effect on sporozoite invasion” value [8] was “not affected”, the “effect on sporozoite traversal of hepatocytes” value [8] was “slight effect” and the IC50 [9] was 5.33 µM. For the same molecule, the Emax ([9]; read-out: LucInhib max inhibition) was 89%, the inhibition at 0.1 µM [1, 12] was 22% and the inhibition at 1 µM [1, 12] was -3%. It also gave an inhibition at 10 µM [1, 12] of 15%, an inhibition at 0.1 µM [1, 13] of 29% and an inhibition at 1 µM [1, 13] of 16%. The inhibition at 10 µM [1, 13] was 30%, the inhibition at 50 µM [2, 14] was 102% and the inhibition at 50 µM [2, 15] was 103%. For the same molecule, the IC50 [2] was 9.82 nM, the inhibition at 10 µM ([2]; read-out: PbLuc max inhibition (%) @ 10 uM) was 108% and the IC50 [10] was under 100 nM. The “cytotoxicity in Huh7.5.1 cells” value (Huh7.5.1 cells) was “slight cytotoxicity”, the IC50 ([11]; Huh-7.5.1, read-out: Pb-Luc IC50, Treatment: 1) was 172 nM and the IC50 ([11]; Huh-7.5.1, read-out: Pb-Luc IC50, Treatment: 2) was 20 nM. It also gave an IC50 ([11]; Huh-7.5.1, read-out: Pb-Luc IC50, Treatment: 3) of 297 nM, an IC50 ([11]; Huh-7.5.1, read-out: Pb-Luc IC50, Treatment: 4) of 15 nM and an IC50 ([11]; Huh-7.5.1, read-out: Pb-Luc IC50, Treatment: 5) of 16 nM. It also gave an IC50 ([11]; Huh-7.5.1, read-out: Pb-Luc IC50, Treatment: 6) of 12 nM, a cytotoxicity at 50 µM (HepG2-A16-CD81EGFP cells [4]; [16]) of -0.938% and a cytotoxicity at 50 µM (HepG2-A16-CD81EGFP cells [4]; HepG2, read-out: HepG2 Tox% @ 50 uM rep2) of 7%. It also gave an IC50 (HepG2-A16-CD81EGFP cells [4]) of over 10000 nM and an inhibition at 10 µM (HepG2-A16-CD81EGFP cells [4]; HepG2, read-out: Tox max inhibition (%) @ 10 uM) of 123%.
